Test results published in ChEMBL document CHEMBL1201862, “PubChem BioAssay data set” (2004).
Activity calls are given as the source filed them.

Legend:
[1] = MIN6 cell viability loss – mouse insulinoma, cytotoxicity control, dose response (AID 2122); assay type: functional;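 note: confirmatory high-throughput counterscreen run to flag cytotoxic compounds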
[2] = target: T1, Microphthalmia-associated transcription factor (Homo sapiens, UniProt O75030); experiment: reducers of TRPM1 reporter luminescence, concentration series – cell-based, SK-MEL-5, cherry-picked, set 3, MITF inhibitor project, dose response (AID 493073); assay type: functional;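 note: SK-MEL-5 melanoma cells with luciferase driven by the MITF target TRPM1 promoter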
T1 sequence (O75030 whole entry): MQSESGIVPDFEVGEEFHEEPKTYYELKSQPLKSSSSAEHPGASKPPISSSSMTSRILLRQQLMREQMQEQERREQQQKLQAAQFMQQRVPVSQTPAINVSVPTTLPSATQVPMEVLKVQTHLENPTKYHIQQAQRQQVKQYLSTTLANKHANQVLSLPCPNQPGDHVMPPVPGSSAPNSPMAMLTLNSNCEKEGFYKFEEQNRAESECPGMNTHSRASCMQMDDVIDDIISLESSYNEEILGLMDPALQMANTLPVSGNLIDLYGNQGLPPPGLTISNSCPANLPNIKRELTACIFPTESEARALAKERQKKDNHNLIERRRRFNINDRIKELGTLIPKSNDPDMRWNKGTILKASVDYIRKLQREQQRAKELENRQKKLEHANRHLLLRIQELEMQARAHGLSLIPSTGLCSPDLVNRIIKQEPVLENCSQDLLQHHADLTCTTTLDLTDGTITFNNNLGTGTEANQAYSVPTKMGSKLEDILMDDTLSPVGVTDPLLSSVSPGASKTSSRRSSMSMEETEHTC

[3] = NIH-3T3 fibroblast cytotoxicity, dose response, cytotoxicity control, cell-based, fluorescence, Alamar Blue, secondary assay (AID 2327); assay type: functional;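 note: NIH-3T3 mouse fibroblasts cultured with fluconazole at 8 µg/mL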
[4] = fluconazole-exposed Candida albicans growth modulators – fluorescence, retest, confirmation (AID 2467); assay type: functional, cell-based
INS1 [5] = experiment: INS-1E survival protection against cytokine death – cell-based, luminescence, retest, dose response (AID 449756); assay type: functional; conditions: Rattus norvegicus;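 note: cell death triggered by IL-1 beta plus TNF-alpha plus IFN-gamma mixture; protective hits raise ATP signal compared with cytokine alone wells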
[6] = decrease of insulin promoter-GFP reporter – imaging, high-content screening, mouse beta cells (AID 1628); assay type: functional; conditions: MIN6
A-375 = experiment: MITF: Counter assay: A375 proliferation Measured in Cell-Based System Using Plate Reader - 2084-03_Inhibitor_Dose_DryPowder_Activity. [Related pubchem assays (depositor defined):AID488944]; assay type: functional; conditions: Homo sapiens
HEK293 = experiment: cells; assay type: functional, cell-based; conditions: Homo sapiens
[7] = target: Nuclear receptor subfamily 0 group B member 1 (Homo sapiens, UniProt P51843); experiment: Luminescence-based cell-based high throughput dose response assay for inhibitors of the orphan nuclear receptor subfamily 0, group B, member 1 (DAX1; NR0B1). [Related pubchem assays (depositor defined):AID504766, AID504790]; assay type: functional
Chain of Nuclear receptor subfamily 0 group B member 1 (P51843 whole entry): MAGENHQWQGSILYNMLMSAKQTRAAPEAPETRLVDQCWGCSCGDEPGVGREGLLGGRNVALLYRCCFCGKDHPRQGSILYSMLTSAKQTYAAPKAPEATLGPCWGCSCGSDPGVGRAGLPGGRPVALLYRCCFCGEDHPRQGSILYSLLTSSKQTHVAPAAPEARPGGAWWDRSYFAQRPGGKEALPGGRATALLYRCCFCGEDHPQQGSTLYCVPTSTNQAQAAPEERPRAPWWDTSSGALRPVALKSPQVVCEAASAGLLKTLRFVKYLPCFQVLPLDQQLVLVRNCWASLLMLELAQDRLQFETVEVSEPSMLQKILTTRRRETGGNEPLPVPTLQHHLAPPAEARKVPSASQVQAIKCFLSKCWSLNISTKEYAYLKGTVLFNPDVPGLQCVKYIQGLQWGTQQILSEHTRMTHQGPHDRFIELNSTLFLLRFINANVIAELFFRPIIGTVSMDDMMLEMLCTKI

Jurkat = experiment: blockers of NF-kB activation in T cells – Jurkat, luciferase reporter, luminescence, B- and T-cell, dose response (AID 489004); assay type: functional, cell-based; conditions: Homo sapiens;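 note: NF-kB luciferase reporter Jurkat cells stimulated with PMA plus ionomycin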
[8] = reduction of Shn3 3'UTR-driven luciferase in osteoblasts – cell-based, Clone20 osteoblasts, firefly luciferase, cherry-picked, dose response (AID 624132); assay type: functional;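 note: firefly luciferase luminescence from reporter carrying the Shn3 3'UTR in osteoblasts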
[9] = target: Photoreceptor-specific nuclear receptor (Homo sapiens, UniProt Q9Y5X4); assay type: functional, cell-based;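 note: CHO-S cells with Gal4-NCOR and VP16-NR2E3 two-hybrid luciferase reporter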
Chain of Photoreceptor-specific nuclear receptor (Q9Y5X4 whole entry, the tested form may be a part): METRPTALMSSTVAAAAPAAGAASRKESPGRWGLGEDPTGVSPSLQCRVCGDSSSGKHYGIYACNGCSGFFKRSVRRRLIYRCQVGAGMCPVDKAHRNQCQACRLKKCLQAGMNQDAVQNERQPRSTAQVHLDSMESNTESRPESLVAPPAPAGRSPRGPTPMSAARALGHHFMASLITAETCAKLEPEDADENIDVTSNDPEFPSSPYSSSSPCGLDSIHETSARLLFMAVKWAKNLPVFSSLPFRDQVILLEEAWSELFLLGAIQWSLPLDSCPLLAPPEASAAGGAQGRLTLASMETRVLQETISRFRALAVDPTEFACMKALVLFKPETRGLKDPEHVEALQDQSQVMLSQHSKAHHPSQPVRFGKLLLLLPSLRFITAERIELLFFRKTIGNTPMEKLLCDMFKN

[10] = non-specific 3'UTR reporter inhibition in Clone20-Shn3RL – cell-based, Renilla luciferase, cherry-picked, counter-screen for Shn3 inhibitor project, dose response (AID 624133); assay type: functional
[11] = loss of viability in HepG2 cells – cell-based, CellTiter-Glo, cherry-picked, cytotoxicity control for Shn3 inhibitor project, dose response (AID 624134); assay type: functional
[12] = HEK-293T viability loss, compound-treated – cell-based, uHTS hits, cytotoxicity control for B/T-cell NF-kB inhibitor project, dose response (AID 489019); assay type: functional;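 note: IC50 reflects cytotoxicity as loss of cell viability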
[13] = target: T2, Short transient receptor potential channel 4 (Mus musculus, UniProt Q9QUQ5); experiment: mouse TRPC4 block via Gq-coupled stimulation – cell-based, acetylcholine stimulus, HEK293 TRPC4, Fluo-4, SAR follow-up (AID 492996); assay type: functional
T2 sequence (Q9QUQ5 whole entry): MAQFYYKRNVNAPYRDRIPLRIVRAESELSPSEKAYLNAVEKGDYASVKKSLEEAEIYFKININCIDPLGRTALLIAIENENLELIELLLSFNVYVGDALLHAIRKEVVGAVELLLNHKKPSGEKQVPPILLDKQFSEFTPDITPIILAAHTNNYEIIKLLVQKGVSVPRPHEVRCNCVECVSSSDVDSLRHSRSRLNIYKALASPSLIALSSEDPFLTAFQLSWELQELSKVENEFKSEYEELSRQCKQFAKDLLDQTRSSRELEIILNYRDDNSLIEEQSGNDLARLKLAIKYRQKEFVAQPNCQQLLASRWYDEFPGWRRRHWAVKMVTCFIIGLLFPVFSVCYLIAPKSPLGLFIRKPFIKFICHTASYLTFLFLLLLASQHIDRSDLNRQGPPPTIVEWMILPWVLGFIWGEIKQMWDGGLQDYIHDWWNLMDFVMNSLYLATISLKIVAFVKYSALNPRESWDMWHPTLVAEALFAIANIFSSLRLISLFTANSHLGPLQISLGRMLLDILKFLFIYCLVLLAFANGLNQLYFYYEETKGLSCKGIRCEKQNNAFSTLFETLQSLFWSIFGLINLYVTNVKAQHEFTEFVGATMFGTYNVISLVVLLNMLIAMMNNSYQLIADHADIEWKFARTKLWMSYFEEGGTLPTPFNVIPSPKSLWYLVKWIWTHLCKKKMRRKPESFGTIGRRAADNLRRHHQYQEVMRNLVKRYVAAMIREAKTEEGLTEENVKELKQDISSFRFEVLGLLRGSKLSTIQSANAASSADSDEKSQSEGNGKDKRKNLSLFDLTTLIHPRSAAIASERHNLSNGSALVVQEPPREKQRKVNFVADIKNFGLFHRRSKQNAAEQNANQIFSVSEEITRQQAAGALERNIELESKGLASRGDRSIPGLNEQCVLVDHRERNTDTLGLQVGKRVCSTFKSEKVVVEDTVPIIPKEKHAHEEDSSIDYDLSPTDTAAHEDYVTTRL

[14] = suppression of NO production in INS-1E cells – cell-based, Griess absorbance, dry powder, set 3, dose response (AID 488870); assay type: functional; conditions: Rattus norvegicus
INS1 [15] = experiment: beta-cell survival under cytokine stress – INS-1E, ATP luminescence, dry powder, dose response (AID 488844); assay type: functional, cell-based; conditions: Rattus norvegicus
INS1 [16] = experiment: INS-1E mitochondrial potential loss inhibitors – cell-based, JC-1 fluorescence, dry powder, set 2, dose response (AID 488867); assay type: functional; conditions: Rattus norvegicus

COc1ccc(-c2c[n+](CC(=O)OC3CC(C)CCC3C(C)C)c3n2CCC3)cc1 (centres undefined)
IC50 [1]: < 0.25 µM (active) | AC50 [2]: 4.87 µM (active) | EC50 [3]: > 150 µM (inactive) | EC50 [4]: 0.894 µM (active) | AC50 (INS1 [5]): 1.78 µM (active) | IC50 [6]: < 0.25 µM (active) | AC50 (A-375): 35 µM (active)

Nn1c(SCc2c(F)cccc2F)nnc1-c1ccccn1
IC50 (HEK293): > 67.6 µM (inactive) | IC50 [7]: > 67.6 µM (inactive)

Cc1cc2sc3ccc(C#CC4(O)CCCCC4)cc3c(=O)c2cc1C
IC50 (Jurkat): < 0.16 µM (active) | AC50 [8]: < 0.26 µM (active) | IC50 [9]: 0.0182 µM (active) | AC50 [10]: 25 µM (active) | AC50 [11]: 42 µM (active) | IC50 [12]: > 80 µM (inactive)

Cc1cc(N2CCN(C)CC2)nc2ccccc12
IC50 [13]: 31.7 µM (active)

Cc1ccc(S(=O)(=O)N(C)C[C@@H]2Oc3c(NC(=O)Nc4ccc(F)cc4)cccc3C(=O)N([C@H](C)CO)C[C@H]2C)cc1
AC50 [14]: 63.4 µM (active) | AC50 (INS1 [15]): 73.9 µM (active) | AC50 (INS1 [16]): 106 µM (active)
